From patent publication US12686846B2, “Plant sweet and yeast MSF transporter capable of transporting different sugars simultaneously” (THE BOARD OF TRUSTEES OF THE UNIVERSITY OF ILLINOIS, priority 2020, dated 2026)

What was measured:
[1] = molecular target: T1, Saccharomyces cerevisiae ScGal2 (Gal2) transporter, SEQ ID NO:32 (Saccharomyces cerevisiae, UniProt P13181); experiment: C14 labeled sugar uptake assay (zero-trans influx), SR8D8 expressing ScGal2; format: cell-based; conditions: initial glucose uptake (5 s), 30° C., pH 6.5
T1 construct: expressed in transfected cells; host or cells: S. cerevisiae SR8D8 (SR8 with HXT1-7 and GAL2 deleted), plasmid p42K-GPD1p-CYC1t
T1 sequence (P13181 1-574): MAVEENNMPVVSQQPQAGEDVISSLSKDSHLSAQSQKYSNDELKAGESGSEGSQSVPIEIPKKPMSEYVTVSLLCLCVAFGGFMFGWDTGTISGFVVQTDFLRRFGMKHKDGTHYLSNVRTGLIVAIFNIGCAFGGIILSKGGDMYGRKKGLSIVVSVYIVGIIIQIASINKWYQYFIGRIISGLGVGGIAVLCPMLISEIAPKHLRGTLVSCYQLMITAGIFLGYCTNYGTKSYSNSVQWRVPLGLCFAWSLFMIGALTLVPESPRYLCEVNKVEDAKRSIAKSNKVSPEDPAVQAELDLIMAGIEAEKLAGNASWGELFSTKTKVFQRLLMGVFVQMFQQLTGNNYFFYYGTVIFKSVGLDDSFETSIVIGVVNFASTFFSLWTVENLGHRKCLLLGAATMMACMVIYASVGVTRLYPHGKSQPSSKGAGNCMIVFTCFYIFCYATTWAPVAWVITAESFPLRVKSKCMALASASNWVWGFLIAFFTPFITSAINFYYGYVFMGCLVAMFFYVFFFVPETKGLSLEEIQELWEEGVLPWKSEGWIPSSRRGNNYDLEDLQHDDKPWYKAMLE
Procedure: FIG. 7A illustrates sugar uptake kinetics by SR8D8. FIG. 7B illustrates sugar uptake kinetics by SR8D8 expressing AtSWEET1. FIG. 7C illustrates sugar uptake kinetics by SR8D8 expressing ScGal2. FIG. 7D illustrates sugar uptake kinetics by SR8D8 expressing AtSWEET7. FIG. 7E illustrates sugar uptake kinetics by SR8D8 expressing LST1_205437. Initial xylose uptake (20 s) was measured at 30° C. over a concentration range of 1 to 500 mM xylose. FIG. 7F illustrates sugar uptake kinetics by SR8D8. FIG. 7G illustrates sugar uptake kinetics by SR8D8 expressing AtSWEET1. FIG. 7H illustrates sugar uptake kinetics by SR8D8 expressing ScGal2. FIG. 7I illustrates sugar uptake kinetics by SR8D8 expressing AtSWEET7. FIG. 7J illustrates sugar uptake kinetics by SR8D8 expressing LST1_205437. Initial glucose uptake (5 s) was measured at 30° C. over a concentration range of 0.2 to 100 mM glucose. Curve fitting for Michaelis-Menten kinetics was applied to data of three independent measurements at each concentration.
A xylose fermenting S. cerevisiae yeast (SR8) with HXT1-7Δ, GAL2Δ deletions was used for transporter screening and characterization (SR8D8). SR8D8 was grown in YPE medium/plate (10 g/L yeast extract, 20 g/L peptone, and 5 g/L ethanol). […] Biomass was calculated from the OD600 measured using a Biomate 5 UV-visible spectrophotometer (Fisher, NY, USA). All growth rates were measured using a Bioscreen C plate reader system (Growth Curves USA, Piscataway, NJ, USA). […]
SR8D8 containing the respective plasmid was grown on selective YPE medium to an OD600 of 1-1.5, harvested by centrifugation, and washed twice in ice-cold uptake buffer (100 mM potassium phosphate, pH 6.5). […] Radioactivity was analyzed in a Beckman-Coulter LS6500 multi-purpose liquid scintillation counter (Beckman-Coulter, CA, USA).
Uptake was measured at sugar concentrations 0.2, 1, 5, 25, and 100 mM for glucose and 1, 5, 25, 66, 100, 200, and 500 mM for xylose. Inhibition of xylose uptake by glucose was measured at 25, 66, and 100 mM xylose with additional 25 and 100 mM unlabeled glucose.

[2] = molecular target: T1, Saccharomyces cerevisiae ScGal2 (Gal2) transporter, SEQ ID NO:32; experiment: Inhibition of xylose uptake by glucose, SR8D8 expressing ScGal2; format: cell-based; conditions: in words
Procedure: Symbols: glucose (square), xylose (triangle up), DCW (circle), ethanol (triangle down), glycerol (diamond). […] Global curve fitting for Michaelis-Menten kinetics with competitive inhibition was applied to data of three independent measurements at each concentration.
SR8D8 containing the respective plasmid was grown on selective YPE medium to an OD600 of 1-1.5, harvested by centrifugation, and washed twice in ice-cold uptake buffer (100 mM potassium phosphate, pH 6.5). C14 labeled sugar uptake assay was done according to Boles and Oreb. Radioactivity was analyzed in a Beckman-Coulter LS6500 multi-purpose liquid scintillation counter (Beckman-Coulter, CA, USA).
Sugar solutions contained 0.135-0.608 μCi of D-[U-^14C]-glucose (290-300 mCi/mmol) or D-[1-^14C]-xylose (55 mCi/mmol) (PerkinElmer, MA, USA). Calculation of Km (Michaelis constant), Vmax (maximal initial uptake velocity), and K (inhibitor constant for competitive inhibition) was done by nonlinear regression analysis and global curve fitting in Prism 7 (GraphPad Software) with values of three independent measurements.

OC[C@H]1OC(O)[C@H](O)[C@@H](O)[C@@H]1O (stereo partly shown) [Glucose]
Vmax (glucose) [1]: 38.33 nmol/min/mg | Vmax (glucose) ([1]; cell wet weight, ± SEM): 38.3 ± 1.4 nmol/min/mg | inhibition of xylose transport by glucose ([2]; 25 mM glucose): complete xylose inhibition | inhibition of xylose transport by glucose ([2]; 25 mM or 100 mM glucose): completely inhibited
